Molecular target: T1, recombinant His-tag Y220C p53 DBD protein (Homo sapiens, UniProt P04637, Y220C)
T1 construct: recombinant His-tag Y220C p53 DBD protein (amino acids #˜94-312)
Assay: In vitro DNA binding activity assay (TR-FRET): binding of His-tag Y220C p53 DBD to biotin-labeled consensus DNA
Assay type: biochemical
Conditions: SC150 = concentration to increase DNA binding by […], His-tag Y220C p53 DBD, biotin-labeled consensus DNA

Q: With `O=C(NCc1nc(-c2cc3c(NCC4CNC4)cccc3n2CC(F)(F)F)no1)C1CC1` [Compound 170B, N-{[3-(4-{[(432zetidine-3-yl)methyl]amino}-1-(2,2,2-trifluoroethyl)-1H-indol-2-yl)-1,2,4-oxadiazol-5-yl]methyl}cyclopropanecarboxamide] as the molecule, how does the “Y220C SC150 (μM)” value read?
A: The value was “* (* = 0 μM ≤ SC150 < 0.1 μM)”.

Q: How did the “Y220C SC150 (μM)” value turn out when `CO[C@H]1CCN(c2nc(C(=O)NCc3nc(-c4cc5c(N[C@@H]6CCN(C)C[C@@H]6F)cccc5n4CC(F)(F)F)no3)cs2)C1` [Compound 523B, N-{[3-(4-{[(3S,4R)-3-fluoro-1-methylpiperidin-4-yl]amino}-1-(2,2,2-trifluoroethyl)-1H-indol-2-yl)-1,2,4-oxadiazol-5-yl]methyl}-2-[(3S)-3-methoxypyrrolidin-1-yl]-1,3-thiazole-4-carboxamide] was run?
A: Its value is “* (* = 0 μM ≤ SC150 < 0.1 μM)”.

Q: For `COCC(C)(C)n1cc(C(=O)NCc2nc(-c3cc4c(N[C@H]5CCN(C(C)(C)C)C[C@@H]5F)cccc4n3CC(F)(F)F)no2)cn1` (racemic) [Compound 411B, N-{[3-(4-{[(3R,4R)-1-tert-butyl-3-fluoropiperidin-4-yl]amino}-1-(2,2,2-trifluoroethyl)-1H-indol-2-yl)-1,2,4-oxadiazol-5-yl]methyl}-1-(1-methoxy-2-methylpropan-2-yl)-1H-pyrazole-4-carboxamide], which “Y220C SC150 (μM)” value is on record?
A: The value was “* (* = 0 μM ≤ SC150 < 0.1 μM)”.

Q: For `CN1CCC(Nc2cccc3c2cc(-c2nc(CNC(=O)c4cnn(C)c4)no2)n3CC(F)(F)F)CC1` [Compound 140B, 1-methyl-N-[(5-{4-[(1-methylpiperidin-4-yl)amino]-1-(2,2,2-trifluoroethyl)-1H-indol-2-yl}-1,2,4-oxadiazol-3-yl)methyl]-1H-pyrazole-4-carboxamide], which “Y220C SC150 (μM)” value is on record?
A: The value was “** (** = 0.1 μM ≤ SC150 < 0.5 μM)”.

Q: How did the “Y220C SC150 (μM)” value turn out when `CN1CC[C@@H](Nc2cccc3c2cc(-c2noc(CNC(=O)c4ccn(C5CCC(F)C5)c4)n2)n3CC(F)(F)F)[C@@H](F)C1` (stereo partly drawn) [Compound 345B, N-{[3-(4-{[(3S,4R)-3-fluoro-1-methylpiperidin-4-yl]amino}-1-(2,2,2-trifluoroethyl)-1H-indol-2-yl)-1,2,4-oxadiazol-5-yl]methyl}-1-(3-fluorocyclopentyl)-1H-pyrrole-3-carboxamide] was run?
A: Its value is “* (* = 0 μM ≤ SC150 < 0.1 μM)”.

Q: Which “Y220C SC150 (μM)” value does the source give for `COCC(C)n1ccc(C(=O)NCc2nc(-c3cc4c(N[C@@H]5CCN(C(C)(C)C)C[C@H]5F)cccc4n3CC(F)(F)F)no2)c1` (mixture of isomers) [Compound 358B, rac-N-{[3-(4-{1[(3R,4R)-1-tert-butyl-3-fluoropiperidin-4-yl]amino}-1-(2,2,2-trifluoroethyl)-1H-indol-2-yl)-1,2,4-oxadiazol-5-yl]methyl}-1-(1-methoxypropan-2-yl)-1H-pyrrole-3-carboxamide] here?
A: The value was “* (* = 0 μM ≤ SC150 < 0.1 μM)”.

Q: Which “Y220C SC150 (μM)” value does the source give for `CN1CC[C@@H](Nc2cccc3c2cc(-c2noc(CNC(=O)c4csc(C(C)(C)C)n4)n2)n3CC(F)(F)F)[C@@H](F)C1` [Compound 438B, 2-tert-butyl-N-{[3-(4-{[(3S,4R)-3-fluoro-1-methylpiperidin-4-yl]amino}-1-(2,2,2-trifluoroethyl)-1H-indol-2-yl)-1,2,4-oxadiazol-5-yl]methyl}-1,3-thiazole-4-carboxamide] here?
A: The value was “* (* = 0 μM ≤ SC150 < 0.1 μM)”.

Q: How did the “Y220C SC150 (μM)” value turn out when `CN1CC[C@@H](Nc2cccc3c2cc(-c2noc(CNC(=O)c4ccc(C(C)(C)C)s4)n2)n3CC(F)(F)F)[C@@H](F)C1` [Compound 422B, 5-tert-butyl-N-[[3-[4-[[(3S,4R)-3-fluoro-1-methyl-4-piperidyl]amino]-1-(2,2,2-trifluoroethyl)indol-2-yl]-1,2,4-oxadiazol-5-yl]methyl]thiophene-2-carboxamide] was run?
A: The value was “* (* = 0 μM ≤ SC150 < 0.1 μM)”.

Q: How did the “Y220C SC150 (μM)” value turn out when `CN1CCC(Nc2cccc3c2cc(-c2noc(CNC(=O)c4ccn(C)c4)n2)n3CC(F)(F)F)CC1` [Compound 152B, 1-methyl-N-[(3-{4-[(1-methylpiperidin-4-yl)amino]-1-(2,2,2-trifluoroethyl)-1H-indol-2-yl}-1,2,4-oxadiazol-5-yl)methyl]-1H-pyrrole-3-carboxamide] was run?
A: Its value is “* (* = 0 μM ≤ SC150 < 0.1 μM)”.

Q: Which “Y220C SC150 (μM)” value does the source give for `CN1CC[C@@H](Nc2cccc3c2cc(-c2noc(CNC(=O)c4ccn(C5CCCC5F)c4)n2)n3CC(F)(F)F)[C@@H](F)C1` (stereo in doubt) [Compound 392B, N-{[3-(4-{[(3S,4R)-3-fluoro-1-methylpiperidin-4-yl]amino}-1-(2,2,2-trifluoroethyl)-1H-indol-2-yl)-1,2,4-oxadiazol-5-yl]methyl}-1-[(1R,2R)-2-fluorocyclopentyl]-1H-pyrrole-3-carboxamide] here?
A: The value was “* (* = 0 μM ≤ SC150 < 0.1 μM)”.

Q: How did the “Y220C SC150 (μM)” value turn out when `CN1CC[C@@H](Nc2cccc3c2cc(-c2noc(CNC(=O)C4CCC4)n2)n3CC(F)(F)F)[C@@H](F)C1` [Compound 222B, N-{[3-(4-{[(3S,4R)-3-fluoro-1-methylpiperidin-4-yl]amino}-1-(2,2,2-trifluoroethyl)-1H-indol-2-yl)-1,2,4-oxadiazol-5-yl]methyl}cyclobutanecarboxamide] was run?
A: Its value is “* (* = 0 μM ≤ SC150 < 0.1 μM)”.

Q: For `CN1CCC(Nc2cccc3c2cc(-c2nnc(CNC(=O)c4ccncc4)s2)n3CC(F)(F)F)CC1` [Compound 49B, N-[(5-{4-[(1-methylpiperidin-4-yl)amino]-1-(2,2,2-trifluoroethyl)-1H-indol-2-yl}-1,3,4-thiadiazol-2-yl)methyl]pyridine-4-carboxamide], which “Y220C SC150 (μM)” value is on record?
A: The value was “** (** = 0.1 μM ≤ SC150 < 0.5 μM)”.

Q: Which “Y220C SC150 (μM)” value does the source give for `CN1CC[C@@H](Nc2cccc3c2cc(-c2noc(CNC(=O)c4ccn(CC(C)(C)O)c4)n2)n3CC(F)(F)F)[C@@H](F)C1` [Compound 252B, N-{[3-(4-{[(3S,4R)-3-fluoro-1-methylpiperidin-4-yl]amino}-1-(2,2,2-trifluoroethyl)-1H-indol-2-yl)-1,2,4-oxadiazol-5-yl]methyl}-1-(2-hydroxy-2-methylpropyl)-1H-pyrrole-3-carboxamide] here?
A: Its value is “* (* = 0 μM ≤ SC150 < 0.1 μM)”.

Q: `CN1CC[C@@H](Nc2cccc3c2cc(-c2noc(CNC(=O)[C@@H]4C[C@H]4c4cccc(F)c4)n2)n3CC(F)(F)F)[C@@H](F)C1` [Compound 235B, (1R,2R)-N-{[3-(4-{[(3S,4R)-3-fluoro-1-methylpiperidin-4-yl]amino}-1-(2,2,2-trifluoroethyl)-1H-indol-2-yl)-1,2,4-oxadiazol-5-yl]methyl}-2-(3-fluorophenyl)cyclopropane-1-carboxamide] was tested. Which “Y220C SC150 (μM)” value did it give?
A: The value was “* (* = 0 μM ≤ SC150 < 0.1 μM)”.

Q: How did the “Y220C SC150 (μM)” value turn out when `COCC(C)(C)c1cc(C(=O)NCc2nc(-c3cc4c(N[C@@H]5CCOC[C@@H]5F)cccc4n3CC(F)(F)F)no2)cs1` [Compound 508B, N-{[3-(4-{[(3R,4R)-3-fluorooxan-4-yl]amino}-1-(2,2,2-trifluoroethyl)-1H-indol-2-yl)-1,2,4-oxadiazol-5-yl]methyl}-5-(1-methoxy-2-methylpropan-2-yl)thiophene-3-carboxamide] was run?
A: Its value is “* (* = 0 μM ≤ SC150 < 0.1 μM)”.

Q: `CN1CC[C@@H](Nc2cccc3c2cc(-c2ncc(CNC(=O)C4CC4)s2)n3CC(F)(F)F)[C@@H](F)C1` (racemic) [Compound 95B, (+/−)-N-{[2-(4-{[(3R,4S)-3-fluoro-1-methylpiperidin-4-yl]amino}-1-(2,2,2-trifluoroethyl)-1H-indol-2-yl)-1,3-thiazol-5-yl]methyl}cyclopropanecarboxamide] was tested. Which “Y220C SC150 (μM)” value did it give?
A: Its value is “* (* = 0 μM ≤ SC150 < 0.1 μM)”.

Q: Which “Y220C SC150 (μM)” value does the source give for `CN1CC[C@H](Nc2cccc3c2cc(-c2noc(CNC(=O)C4CC4)n2)n3CC(F)(F)F)[C@H](F)C1` [Compound 174B, N-{[3-(4-{[(3R,4S)-3-fluoro-1-methylpiperidin-4-yl]amino}-1-(2,2,2-trifluoroethyl)-1H-indol-2-yl)-1,2,4-oxadiazol-5-yl]methyl}cyclopropanecarboxamide] here?
A: The value was “* (* = 0 μM ≤ SC150 < 0.1 μM)”.

Q: For `CN1CC[C@@H](Nc2cccc3c2cc(-c2cc(CNC(=O)c4ccn(C(C)(C)C)c4)on2)n3CC(F)(F)F)[C@@H](F)C1` [Compound 553B, 1-tert-butyl-N-{[3-(4-{[(3S,4R)-3-fluoro-1-methylpiperidin-4-yl]amino}-1-(2,2,2-trifluoroethyl)-1H-indol-2-yl)-1,2-oxazol-5-yl]methyl}-1H-pyrrole-3-carboxamide], which “Y220C SC150 (μM)” value is on record?
A: Its value is “* (* = 0 μM ≤ SC150 < 0.1 μM)”.

Q: For `C[C@H]1CN(C)CC[C@H]1Nc1cccc2c1cc(-c1noc(CNC(=O)c3ccn(C(C)(C)C)c3)n1)n2CC(F)(F)F` [Compound 514B, 1-tert-butyl-N-{[3-(4-{[(3S,4R)-1,3-dimethylpiperidin-4-yl]amino}-1-(2,2,2-trifluoroethyl)-1H-indol-2-yl)-1,2,4-oxadiazol-5-yl]methyl}-1H-pyrrole-3-carboxamide], which “Y220C SC150 (μM)” value is on record?
A: Its value is “* (* = 0 μM ≤ SC150 < 0.1 μM)”.

Q: Which “Y220C SC150 (μM)” value does the source give for `COc1ccc(C(=O)NCc2nnc(-c3cc4c(N[C@H]5CCN(C)C[C@H]5F)cccc4n3CC(F)(F)F)o2)cc1` (racemic) [Compound 117B, (+/−)-N-{[5-(4-{[(3R,4S)-3-fluoro-1-methylpiperidin-4-yl]amino}-1-(2,2,2-trifluoroethyl)-1H-indol-2-yl)-1,3,4-oxadiazol-2-yl]methyl}-4-methoxybenzamide] here?
A: The value was “** (** = 0.1 μM ≤ SC150 < 0.5 μM)”.

Q: Which “Y220C SC150 (μM)” value does the source give for `COCC1(c2ccc(C(=O)NCc3nc(-c4cc5c(N[C@@H]6CCNC[C@@H]6F)cccc5n4CC(F)(F)F)no3)s2)CC1` [Compound 503B, N-{[3-(4-{[(3S,4R)-3-fluoropiperidin-4-yl]amino}-1-(2,2,2-trifluoroethyl)-1H-indol-2-yl)-1,2,4-oxadiazol-5-yl]methyl)-5-[1-(methoxymethyl)cyclopropyl]thiophene-2-carboxamide] here?
A: The value was “* (* = 0 μM ≤ SC150 < 0.1 μM)”.

Q: How did the “Y220C SC150 (μM)” value turn out when `CN1CC[C@@H](Nc2cccc3c2cc(-c2noc(CNC(=O)c4ccn(C(C)(C)C5CC5)c4)n2)n3CC(F)(F)F)[C@@H](F)C1` [Compound 423B, 1-(2-cyclopropylpropan-2-yl)-N-{[3-(4-{[(3S,4R)-3-fluoro-1-methylpiperidin-4-yl]amino}-1-(2,2,2-trifluoroethyl)-1H-indol-2-yl)-1,2,4-oxadiazol-5-yl]methyl}-1H-pyrrole-3-carboxamide] was run?
A: Its value is “* (* = 0 μM ≤ SC150 < 0.1 μM)”.
